Laboratory results taken from publication PMC4911001, “Synthesis and Biological Evaluation of Novel Phosphatidylcholine Analogues Containing Monoterpene Acids as Potent Antiproliferative Agents” (PLoS ONE, 2016).

Experiments:
[1] = tested on: MV4-11 (human biphenotypic B myelomonocytic leukaemia); assay: Antiproliferative assay in vitro, MTT test, MV4-11; type: cell-based; conditions: mean ± SD of 3–5 independent experiments, n.a. = no activity in concentration of 5, 25, 125, 625 μM
Method: (§1) Established in vitro, human cancer cell lines: MV4-11 (human biphenotypic B myelomonocytic leukaemia), A-549 (non-small cell lung cancer), MCF-7 (breast cancer), LoVo (colon cancer), LoVo/DX (colon cancer drug resistant), HepG2 (liver cancer) and BALB/3T3 (normal mice fibroblasts) were used.
(§2) The leukaemia cell line was cultured in RPMI 1640 medium (IIET, Wroclaw, Poland) with supplemented with 2 mM L-glutamine adjusted to contain 1.0 mM sodium pyruvate, 10% fetal bovine serum (all from Sigma-Aldrich Chemie GmbH, Steinheim, Germany). A549, LoVo and LoVo/DX cells were cultured in the mixture of RPMI 1640+Opti-MEM (1:1) (both from Gibco, Scotland, UK), MCF-7 cells in Eagle medium (IIET, Wroclaw, Poland), HepG2 in DMEM medium (Gibco, Scotland, UK), BALB/3T3 in DMEM medium (IIET, Wroclaw, Poland) supplemented with 2 mM L-glutamine and 1.0 mM sodium pyruvate, 10% fetal bovine serum (all from Sigma-Aldrich, Germany). The MCF-7 cell culture was supplemented with 0.8 mg/L of insulin (Sigma-Aldrich Chemie GmbH, Steinheim, Germany) and the LoVo/DX cell culture was supplemented with 0.1 μg/mL of doxorubicin (Accord). All culture media were supplemented with 100 units/mL penicillin, and 100 μg/mL streptomycin (both from Polfa Tarchomin S.A., Warsaw, Poland). All cell lines were grown at 37°C with 5% CO2 humidified atmosphere.
(§3) Prior to usage, the compounds were dissolved in DMSO or in mixture of 99.8% ethanol and DMSO (1:1) to the concentration of 25 or 50 mM, and subsequently diluted in culture medium to reach the required concentrations (ranging from 5 to 625 μM).
(§4) 24 hours before addition of the tested compounds, the cells were plated in 96-well plates at density of 1×10^4 cells per well. An assay was performed after 72 hours exposure to varying concentrations of the tested agents.
(§5) Cytotoxic test MTT was applied for the cytotoxicity screening against leukaemia cells growing in suspension culture and were carried out according to the method described before. Cytotoxic test SRB was applied against A549, MCF-7, LoVo, LoVo/DX, BALB/3T3 and HepG2 cells and were carried out according to the method described before.
(§6) The results were calculated as an IC50 (inhibitory concentration 50)–the concentration of tested agent, which inhibits proliferation of 50% of the cell population. Each compound in each concentration was tested in triplicate in a single experiment, which was repeated 3–5 times.

LoVo (colon cancer) = assay: Antiproliferative assay in vitro, SRB test, LoVo; type: cell-based, human; conditions: 72 hours exposure, mean ± SD of 3–5 independent experiments, n.a. = no activity in concentration of 5, 25, 125, 625 μM
Method: as §1, §2, §3, §4, §5, §6

[2] = tested on: A-549 (non-small cell lung cancer); assay: Antiproliferative assay in vitro, SRB test, A-549; type: cell-based, human; conditions: mean ± SD of 3–5 independent experiments, n.a. = no activity in concentration of 5, 25, 125, 625 μM
Method: as §1, §2, §3, §4, §5, §6

[3] = tested on: LoVo/DX (colon cancer drug resistant); assay: Antiproliferative assay in vitro, SRB test, LoVo/DX; type: cell-based, human; conditions: 72 hours exposure, doxorubicin-resistant line, mean ± SD of 3–5 independent experiments, n.a. = no activity in concentration of 5, 25, 125, 625 μM
Method: as §1, §2, §3, §4, §5, §6

HepG2 (liver cancer) = assay: Antiproliferative assay in vitro, SRB test, HepG2; type: cell-based, human; conditions: mean ± SD of 3–5 independent experiments, n.a. = no activity in concentration of 5, 25, 125, 625 μM
Method: as §1, §2, §3, §4, §5, §6

MCF-7 (breast cancer) = assay: Antiproliferative assay in vitro, SRB test, MCF-7; type: cell-based, human; conditions: mean ± SD of 3–5 independent experiments, n.a. = no activity in concentration of 5, 25, 125, 625 μM
Method: as §1, §2, §3, §4, §5, §6

[4] = tested on: drug resistant LOVO/DX line versus drug sensitive LoVo line; assay: Resistance index (RI), LoVo/DX versus LoVo; type: cell-based, human; conditions: RI = IC50 LoVo/DX / IC50 LoVo; 0<RI<2 able to overcome drug resistance; 2<RI<10 moderate ability; RI>10 no influence
Method: Using the obtained IC50 values, the resistance indexes (RI) were calculated by dividing the IC50 values of the compounds tested against the cells of drug resistant cell LOVO/DX line by respective values obtained against the cells of drug sensitive LoVo line. According to Harker et al. three categories of the cells could be distinguished: (a) the cells are drug-sensitive—if the ratio approaches 0–2; (b) the cells are moderately drug-resistant—if the ratio ranges from 2 to 10; (c) the cells are markedly drug-resistant—if the ratio is higher than 10.
We calculated also the resistance indexes (RI) by dividing the IC50 values of the compounds tested against the cells of drug resistant cell LoVo/DX by respective values obtained against the drug sensitive LoVo cell line (Table 2). […] Compounds 7a, 7b and 10b have the highest ability to overcome the barrier of resistance (RI = 1.08, 1.06 and 1.09).

[5] = tested on: BALB/3T3 (normal mice fibroblasts); assay: Antiproliferative assay in vitro, SRB test, BALB/3T3; type: cell-based; conditions: mean ± SD of 3–5 independent experiments, n.a. = no activity in concentration of 5, 25, 125, 625 μM
Method: as §1, §2, §3, §4, §5, §6

tested cancer cell lines = assay: Antiproliferative activity compared with free terpene acids, cancer cell line panel; type: cell-based, human; conditions: for antiproliferative activity, fold higher than free acids: compared with free terpene acids; for IC50 values, fold lower than those of free terpene acids 1a, 1b: towards leukaemia, LoVo, LOVO/DX and breast cell lines
Method: as §4, §5, §6
The aim of this study was to determine whether a joining the terpenes with PC has impact on their biological activity. Increasing the lipophilicity of active compounds was expected to raise their cytotoxicity. We observed that almost all synthesized compounds were cytotoxic against tested cancer cell lines. […] Upon careful evaluation of data it can be concluded that cytotoxic activity of terpene-modified PCs is depended on the position of terpene moiety in the backbone of PC. […] These compounds stronger than corresponding acids inhibit the proliferation of cancer cells. […] Their IC50 values were more than 9-fold lower than those determined for free terpene acids 1a, 1b towards leukaemia, LoVo, LOVO/DX and breast cell lines. […] Generally, activity of terpene-modified PC increased in the following sequence: 1-isoprenoyl-LPC < diisoprenoyl-PC < monoisoprenoyl-PC.

[6] = Homo sapiens, MV4-11, 72 hours exposure
[7] = Homo sapiens, MCF7, 72 hours exposure
[8] = Mus musculus, BALB/3T3, 72 hours exposure
[9] = Homo sapiens, A549, 72 hours exposure
[10] = Homo sapiens, HepG2, 72 hours exposure

Row | SMILES | IC50 [1, 6] | IC50 (LoVo (colon cancer); Homo sapiens, LoVo) | IC50 ±SD, A-549 ([2]; 72 hours exposure) | IC50 ([3]; Homo sapiens, LoVo/DX) | IC50 ±SD, HepG2 (HepG2 (liver cancer); 72 hours exposure) | IC50 (MCF-7 (breast cancer); [7]) | Resistance index (RI) [4] | IC50 [5, 8] | IC50 [2, 9] | antiproliferative activity, fold higher than free acids (tested cancer cell lines) | IC50 (HepG2 (liver cancer); [10]) | IC50 ([1]; 72 hours exposure) | IC50 ([5]; 72 hours exposure) | IC50 (LoVo (colon cancer)) | IC50 ([2]; 72 hours exposure) | IC50 [3] | IC50 (HepG2 (liver cancer); 72 hours exposure) | IC50 (MCF-7 (breast cancer); 72 hours exposure) | IC50 values, fold lower than those of free terpene acids 1a, 1b (tested cancer cell lines)
1 | CC(C)=CCCC(C)CC(=O)O (stereo not drawn) [Compound 1b, citronellic acid, reference compound] | 254 ± 68 µM | 249 ± 26.4 µM | did not showed any reduction of cells growth | 533 ± 36.7 µM | did not showed any reduction of cells growth | 453 ± 96 µM |  |  |  |  |  |  |  |  |  |  |  |  | 
2 | COc1cccc2c1C(=O)c1c(O)c3c(c(O)c1C2=O)C[C@@](O)(C(=O)CO)C[C@@H]3O[C@H]1C[C@H](N)[C@H](O)[C@H](C)O1 [Doxorubicin, reference compound] |  | 0.117 ± 0.012 µM |  | 6.53 ± 0.93 µM |  |  | 55.81 |  |  |  |  |  |  |  |  |  |  |  | 
3 | CC(C)=CCCC(C)=CC(=O)OC[C@@H](O)COP(=O)([O-])OCC[N+](C)(C)C (mixture of isomers) [Compound 9a] | 324 ± 116 µM | 246 ± 9.9 µM | not active | 526 ± 89.6 µM | not active | 523 ± 97.2 µM |  |  |  |  |  |  |  |  |  |  |  |  | 
4 | CC(C)=CCCC(C)=CC(=O)OC[C@H](COP(=O)([O-])OCC[N+](C)(C)C)OC(=O)C=C(C)CCC=C(C)C (mixture of isomers) [Compound 3a] | 96.7 ± 33.9 µM | 248 ± 9.3 µM |  | 279 ± 10.8 µM |  | 236 ± 21.3 µM | 1.12 | 273 ± 6.76 µM | 274 ± 9.42 µM | 2-3 fold | 285 ± 5 µM |  |  |  |  |  |  |  | 
5 | N.N.[Cl][Pt][Cl] [Cisplatin, reference compound] |  |  |  |  |  |  |  |  |  |  |  | 1.3 ± 0.47 µM | 4.2 ± 1.1 µM | 2.56 ± 0.35 µM | 8.6 ± 0.7 µM | 3.17 ± 0.2 µM | 2.38 ± 0.64 µM | 8.1 ± 0.03 µM | 
6 | CC(C)=CCCC(C)=CC(=O)O [Compound 1a, Geranic acid, reference compound] | 311 ± 96.4 µM | 263 ± 32 µM | did not showed any reduction of cells growth | 492 ± 44.5 µM | did not showed any reduction of cells growth | 447 ± 72 µM | 1.87 |  |  |  |  |  |  |  |  |  |  |  | 
7 | CCCCCCCCCCCCCCCC(=O)OC[C@H](COP(=O)([O-])OCC[N+](C)(C)C)OC(=O)C=C(C)CCC=C(C)C (mixture of isomers) [Compound 7a, 1'-palmitoyl-2'-(E)-geranoyl-sn-glycero-3'-phosphocholine + 1'-palmitoyl-2'-(Z)-geranoyl-sn-glycero-3'-phosphocholine] | 60.9 ± 10.9 µM | 51.1 ± 5.1 µM |  | 55 ± 2.12 µM |  | 105 ± 6.51 µM | 1.08 | 186 ± 15.2 µM | 72.1 ± 14.4 µM |  | 200 ± 6.1 µM |  |  |  |  |  |  |  | more than 9 fold
8 | CC(C)=CCCC(C)CC(=O)OC[C@@H](O)COP(=O)([O-])OCC[N+](C)(C)C (stereo partly drawn) [Compound 9b] | 382 ± 24.5 µM | 287 ± 35.1 µM |  | 552 ± 18.5 µM |  |  | 1.93 |  |  |  |  |  |  |  |  |  |  |  | 
9 | CCCCCCCCCCCCCCCC(=O)OC[C@H](COP(=O)([O-])OCC[N+](C)(C)C)OC(=O)CC(C)CCC=C(C)C (stereo partly drawn) [Compound 7b] | 45.7 ± 7.63 µM | 53.9 ± 2.97 µM |  | 57.1 ± 2.5 µM |  | 155 ± 88.3 µM | 1.06 | 112 ± 29.3 µM | 61.2 ± 6 µM |  | 103 ± 11.1 µM |  |  |  |  |  |  |  | more than 9 fold
10 | CC(C)=CCCC(C)CC(=O)OC[C@H](COP(=O)([O-])OCC[N+](C)(C)C)OC(=O)CC(C)CCC=C(C)C (stereo partly drawn) [Compound 3b] | 130 ± 37.8 µM | 194 ± 22 µM |  | 251 ± 23.4 µM |  | 243 ± 45.1 µM | 1.3 | 284 ± 6.3 µM | 203 ± 47.7 µM | 2-3 fold | 280.7 ± 1.8 µM |  |  |  |  |  |  |  | 
11 | CCCCCCCCCCCCCCCC(=O)O[C@H](COC(=O)C=C(C)CCC=C(C)C)COP(=O)([O-])OCC[N+](C)(C)C (mixture of isomers) [Compound 10a] | 38.2 ± 9.3 µM | 34.6 ± 1.6 µM |  | 51.9 ± 6.7 µM |  | 52.5 ± 5.9 µM | 1.5 | 65.8 ± 3.34 µM | 49.5 ± 1.88 µM |  | 70.3 ± 8.6 µM |  |  |  |  |  |  |  | more than 9 fold
12 | CCCCCCCCCCCCCCCC(=O)O[C@H](COC(=O)CC(C)CCC=C(C)C)COP(=O)([O-])OCC[N+](C)(C)C (stereo partly drawn) [Compound 10b] | 57.1 ± 6.37 µM | 52.4 ± 3.6 µM |  | 57 ± 1.8 µM |  | 209 ± 25.7 µM | 1.09 | 92.9 ± 15.3 µM | 60.2 ± 6.4 µM |  | 233 ± 14.7 µM |  |  |  |  |  |  |  | more than 9 fold
